From patent publication US11542316B2, “S-Arrestin peptides and therapeutic uses thereof” (APITOPE INTERNATIONAL NV, priority 2017, dated 2023)
Ends that are not written are not given here.

Experiments:
[1] = system: SAg-specific hybridoma cells / T cell line with VAVY APC; experiment: Antigen Processing Independent Presentation System (APIPS) assay, fresh or fixed VAVY APC; type: cell-based, DR3 mice; conditions: DR3 hybridoma clone (IL-2, 48 h) or T cell line (IFN-γ, 24 h)
Protocol: (§1) FIG. 2: identification of apitopes within HIP-115. (A) DR3 mice were immunized with SAg and hybridomas were generated. 5×10^4 SAg-specific hybridoma cells were cultured with 5×10^4 fresh or fixed commercial APC (VAVY) cells. T cell proliferation was measured by IL-2 ELISA on supernatants collected after 48 h. The graph represents the mean of duplicate measurements±SEM. (B) DR3 mice were immunized with HIP-115 and a T cell line was established. Ten days after immunization the LN and spleens were harvested and cultured with different concentrations of peptide (0.1-1-2.5 and 5 μg/ml); 2×10^6 cells/ml APC+1×10^6 cells/ml CD4 T cells per well. At day 7 the cells were re-stimulated with the same concentrations of peptide. On day 14 an APIPS test was done using commercial APC (VAVY). After 24 h, antigen-induced T cell activation was measured by IFN-γ ELISA and shown as IFN-γ concentration (pg/ml). The graph represents the mean of duplicate measurements±SEM. LN, lymph nodes; APC, Antigen presenting cell; APIPS, Antigen Processing Independent Presentation System.
as §1, with “3:” for “2:”, “HIP-241125.” for “HIP-115.”, “HIP-241125+HIP-24DG” for “HIP-115”
(§2) FIG. 5: Identification of apitopes within HIP-17GN. DR3 mice were immunized with HIP-17GN and a T cell line was established. Ten days after immunization the LN and spleens were harvested and cultured with different concentrations of peptide (0.1-1-2.5 and 5 μg/ml); 2×10^6 cells/ml APC+1×10^6 cells/ml CD4 T cells per well. At day 7 the cells were re-stimulated with the same concentrations of peptide. On day 14 an APIPS test was done using commercial APC (VAVY). After 24 h, antigen-induced T cell activation was measured by IFN-γ ELISA and shown as OD values. The graph represents the mean of triplicate measurements±SEM. LN, lymph nodes; APC, Antigen presenting cell; APIPS, Antigen Processing Independent Presentation System.
as §2, with “6:” for “5:”, “HIP-12AK.” for “HIP-17GN.”, “HIP-12AK” for “HIP-17GN”, “IFN-γ concentration (pg/ml).” for “OD values.”, “duplicate” for “triplicate”
Antigen-specific clones or TCL were tested for their reactivity to the peptides, presented by fixed or not fixed (fresh) cells (VAVY or MGAR) (=APCs). 5×10^4 cells from the individual clones were cultured with 10 μg/ml peptide and 5×10^4 fixed or fresh APCs. […]

[2] = system: LN cells and splenocytes upon SAg or peptide restimulation; experiment: Ex vivo tolerization experiment, DR3tg mice; type: in vivo; conditions: DR3 mice, IFN-γ; for tolerization against SAg: escalating dose regime s.c.
Protocol: FIG. 7: Ex vivo tolerisation protocol. Mice are injected subcutaneously in the flank with 0.1 μg/ml, 1 μg/ml and 10 μg/ml peptide on days −15, −13 and −11, followed by 3 injections of 100 μg/ml on days −8, −6 and −4 (escalating dose regime). On day 0, mice are immunized subcutaneously at the base of the tail with SAg/CFA or peptide/CFA. Mice are sacrificed 10 days after immunization to measure proliferation of LN cells and splenocytes upon SAg or peptide restimulation. LN, lymph nodes.
FIG. 8: Ex vivo tolerance induction by HIP-115NE3-KKK apitope. DR3 mice are injected subcutaneously in the flank with 0.1 μg/ml, 1 μg/ml and 10 μg/ml HIP-115NE3-KKK on days −15, −13 and −11, followed by 3 injections of 100 μg/ml on days −8, −6 and −4 (escalating dose regime). On day 0, mice are immunized subcutaneously at the base of the tail with HIP-115/CFA. Mice are sacrificed 10 days after immunization to measure proliferation of LN cells and splenocytes upon SAg or peptide restimulation. Data represent mean±SEM of the concentration or OD values for the PBS-treated mice (black lines) and peptide-treated mice (color lines). Two-way ANOVA was used to measure overall treatment effects on T cell activation and p-values are written in the graphs. Bonferonni post-hoc testing was used and significant differences are indicated in the graphs (* p<0.05; **** p<0.0001). LN, lymph nodes. (A) Tolerisation against SAg in LN. IFN-γ production expressed as IFN-γ concentration (pg/ml). (B) Tolerisation against SAg in spleen. IFN-γ production expressed as IFN-γ concentration (pg/ml). (C) Tolerisation against HIP-115 and HIP-115NE3 peptides in LN. IFN-γ production expressed as OD values. (D) Tolerisation against HIP-115 and HIP-115NE3 peptides in spleen. IFN-γ production expressed as OD values.
FIG. 9: Ex vivo tolerance induction by HIP-11B apitope. DR3 mice are injected subcutaneously in the flank with 0.1 μg/ml, 1 μg/ml and 10 μg/ml HIP-11B on days −15, −13 and −11, followed by 3 injections of 100 μg/ml on days −8, −6 and −4 (escalating dose regime). On day 0, mice are immunized subcutaneously at the base of the tail with HIP-11B/CFA. Mice are sacrificed 10 days after immunization to measure proliferation of LN cells and splenocytes upon SAg or peptide restimulation. Data represent mean±SEM of the concentration values for the PBS-treated mice (black lines) and peptide-treated mice (color lines). IFN-γ production expressed as IFN-γ concentration (pg/ml). Two-way ANOVA was used to measure overall treatment effects on T cell activation and p-values are written in the graphs. Bonferonni post-hoc testing was used and significant differences are indicated in the graphs (* p<0.05; **** p<0.0001). LN, lymph nodes. (A) Tolerisation against SAg in LN. (B) Tolerisation against SAg in spleen. (C) Tolerisation against HIP-11B peptide in LN. (D) Tolerisation against HIP-11B peptide in spleen.
FIG. 10: Ex vivo tolerance induction by HIP-24DG apitope. DR3 mice are injected subcutaneously in the flank with 0.1 μg/ml, 1 μg/ml and 10 μg/ml HIP-24DG on days −15, −13 and −11, followed by 3 injections of 100 μg/ml on days −8, −6 and −4 (escalating dose regime). On day 0, mice are immunized subcutaneously at the base of the tail with HIP-24DG+HIP-24HM/CFA. Mice are sacrificed 10 days after immunization to measure proliferation of LN cells and splenocytes upon SAg or peptide restimulation. Data represent mean±SEM of the OD values for the PBS-treated mice (black lines) and peptide-treated mice (color lines). IFN-γ production expressed as OD values. LN, lymph nodes. Two-way ANOVA was used to measure overall treatment effects on T cell activation and p-values are written in the graphs. Bonferonni post-hoc testing was used and significant differences are indicated in the graphs (* p<0.05; ** p<0.01; *** p<0.001: **** p<0.0001). LN, lymph nodes. (A) Tolerisation against SAg in LN. (B) Tolerisation against HIP-24DG in LN. (C) Tolerisation against HIP-24HM2 peptide in LN. […]

Solubility of peptides = type: physicochemical
Protocol: The solubility of potential apitopes from S—Ag are determined by visual observations and turbidity measurement by UV spectrophotometry at 280 nm. The solubility of the peptides can be modified by adding amino acids ‘GKK’ or ‘KKK’ (or similar) on both the C- and N-terminus of the sequence. Modifications that may be suitable are described in WO2014/072958 (which is hereby incorporated by reference).
For some of these peptides, the parental peptides were insoluble, and solubility is a critical parameter for them to work as a tolerogenic peptide. Several end-terminal modifications can be used and as example used here they were improved by addition of 3 lysines before and after the original peptide sequence (labelled as ‘-KKK’ versions).

Substance | behaves as apitope (response to peptide presented by fresh or fixed APC) [1] | also measured
KKKVIGLTFRRDLYFSRVQVYPPVGKKK-NH2 [HIP-17GN-KKK] | behave as apitopes | tolerization against SAg ([2]; spleen): tolerization induced
LTLLPLLANNRERRGIALDG-NH2 [HIP-24HM] | behave as apitopes | –
LTFRRDLYFSRVQVY-NH2 [HIP-17J, LTFRRDLYFSRVQVY] | behave as apitopes | –
RERRGIALDGKIKHE-NH2 [HIP-11B, RERRGIALDGKIKHE] | behave as apitopes | tolerization against the peptide itself / peptides of the same region ([2]; LN): tolerization induced; tolerization against SAg ([2]; LN): tolerization induced; tolerization against the peptide itself ([2]; spleen): tolerization induced; tolerization against SAg ([2]; spleen): tolerization induced
PLLANNRERRGI-NH2 [HIP-24HM2, PLLANNRERRGI] | behave as apitopes | solubility (Solubility of peptides): soluble
LTLLPLLANNRERRGIALDGKIKHEDTNLASSTIIKEG-NH2 [HIP-241125] | behave as apitopes | –
VIGLTFRRDLYFSRVQVYPPVG-NH2 [HIP-17GN] | behave as apitopes | –
FKKISRDKSVTIY-NH2 [HIP-115NE2, FKKISRDKSVTIY] | behave as apitopes | –
GILVSYQIKVK-NH2 [HIP-12G1, GILVSYQIKVK] | behave as apitopes | –
HVIFKKISRDKSVTIYLGN-NH2 [HIP-115NE, HVIFKKISRDKSVTIYLGN] | behave as apitopes | –
KKISRDKSVTI-NH2 [HIP-115NE1, KKISRDKSVTI] | behave as apitopes | –
HIP-17K1-KKK: '-KKK' version (3 lysines before and after the sequence) of HIP-17K1; its sequence is not printed (KKKTFRRDLYFSRVQKKK) | behave as apitopes | –
KKKVLGILVSYQIKVKLTKKK-NH2 [HIP-12E-KKK] | behave as apitopes | –
ERRGIALDGKIKH-NH2 [HIP-11AC1, ERRGIALDGKIKH] | behave as apitopes | –
NRERRGIALDGKIKHED-NH2 [HIP-11AC, NRERRGIALDGKIKHED] | behave as apitopes | –
